These results are taken from US20230312576A1, “4-(7H-PYRROLO[2,3-D]PYRIMIDIN-4-YL)-3,6-DIHYDROPYRIDINE-1-(2H)-CARBOXAMIDE DERIVATIVES AS LIMK AND/OR ROCK KINASES INHIBITORS FOR USE IN THE TREATMENT OF CANCER” (CENTRE NATIONAL DE LA RECHERCHE SCIENTIFIQUE, priority 2020, published 2023).

Each structure is given as a SMILES string. Where two headings read alike, the source gives them in different places.

Assay [1] concerns the target LIMK1 (Homo sapiens (Human), UniProt P53667). Briefly: Lanthascreen Eu binding assay (TR-FRET), inhibition of LIMK1. For orientation: In TR-FRET formats the signal depends on donor and acceptor labels being close together.
Assay [2] deals with LIMK2 (Homo sapiens (Human), UniProt P53671). Briefly: Lanthascreen Eu binding assay (TR-FRET), inhibition of LIMK2.
The target of assay [3] is ROCK1 (Homo sapiens (Human), UniProt Q13464). Briefly: Z'Lyte assay, ROCK1 inhibition at a single concentration. In kind it is biochemical.
In assay [4] the target is ROCK2 (Homo sapiens (Human), UniProt O75116). Briefly: Z'Lyte assay, ROCK2 inhibition at a single concentration. In kind it is biochemical.
The test system of assay [5] is cofilin phosphorylation, HeLa cells. Briefly: Cofilin phosphorylation by Western Blot (anti-phospho-Ser3-cofilin) in HeLa cells. The assay is classed as cell-based. Particulars: for inhibition at 25 µM: Homo sapiens. On the technique in general: A western blot detects proteins with antibodies after separation by electrophoresis.
Setting [6] is: read-out: % inhibition (ROCK1) 1 uM.
Setting [7] is: read-out: % inhibition (ROCK2) 1 uM.
The mark [8] stands for this setting: read-out: % inhibition Cofilin phosphorylation HeLa cells treated 2 h with 25 uM of inhibitor, HeLa cells, 2 h, 25 uM.
Where [9] appears, read: read-out: % inhibition (ROCK1) 1 uM, 1 uM.
The mark [10] stands for this setting: read-out: % inhibition (ROCK2) 1 uM, 1 uM.
[11] abbreviates: HeLa, 2 h, read-out: % inhibition of cofilin phosphorylation in HeLa cells (treatment 2 h, at 25 μM), Table 2, normalized to the control condition DMSO.
Where [12] appears, read: HeLa, 2 h, read-out: % inhibition Cofilin phosphorylation HeLa cells treated 2 h with 25 uM of inhibitor.
Setting [13] is: HeLa, 2 h, read-out: % inhibition of cofilin phosphorylation in HeLa cells (treatment 2 h, at 25 μM).

ROCK2, sequence (O75116 whole entry): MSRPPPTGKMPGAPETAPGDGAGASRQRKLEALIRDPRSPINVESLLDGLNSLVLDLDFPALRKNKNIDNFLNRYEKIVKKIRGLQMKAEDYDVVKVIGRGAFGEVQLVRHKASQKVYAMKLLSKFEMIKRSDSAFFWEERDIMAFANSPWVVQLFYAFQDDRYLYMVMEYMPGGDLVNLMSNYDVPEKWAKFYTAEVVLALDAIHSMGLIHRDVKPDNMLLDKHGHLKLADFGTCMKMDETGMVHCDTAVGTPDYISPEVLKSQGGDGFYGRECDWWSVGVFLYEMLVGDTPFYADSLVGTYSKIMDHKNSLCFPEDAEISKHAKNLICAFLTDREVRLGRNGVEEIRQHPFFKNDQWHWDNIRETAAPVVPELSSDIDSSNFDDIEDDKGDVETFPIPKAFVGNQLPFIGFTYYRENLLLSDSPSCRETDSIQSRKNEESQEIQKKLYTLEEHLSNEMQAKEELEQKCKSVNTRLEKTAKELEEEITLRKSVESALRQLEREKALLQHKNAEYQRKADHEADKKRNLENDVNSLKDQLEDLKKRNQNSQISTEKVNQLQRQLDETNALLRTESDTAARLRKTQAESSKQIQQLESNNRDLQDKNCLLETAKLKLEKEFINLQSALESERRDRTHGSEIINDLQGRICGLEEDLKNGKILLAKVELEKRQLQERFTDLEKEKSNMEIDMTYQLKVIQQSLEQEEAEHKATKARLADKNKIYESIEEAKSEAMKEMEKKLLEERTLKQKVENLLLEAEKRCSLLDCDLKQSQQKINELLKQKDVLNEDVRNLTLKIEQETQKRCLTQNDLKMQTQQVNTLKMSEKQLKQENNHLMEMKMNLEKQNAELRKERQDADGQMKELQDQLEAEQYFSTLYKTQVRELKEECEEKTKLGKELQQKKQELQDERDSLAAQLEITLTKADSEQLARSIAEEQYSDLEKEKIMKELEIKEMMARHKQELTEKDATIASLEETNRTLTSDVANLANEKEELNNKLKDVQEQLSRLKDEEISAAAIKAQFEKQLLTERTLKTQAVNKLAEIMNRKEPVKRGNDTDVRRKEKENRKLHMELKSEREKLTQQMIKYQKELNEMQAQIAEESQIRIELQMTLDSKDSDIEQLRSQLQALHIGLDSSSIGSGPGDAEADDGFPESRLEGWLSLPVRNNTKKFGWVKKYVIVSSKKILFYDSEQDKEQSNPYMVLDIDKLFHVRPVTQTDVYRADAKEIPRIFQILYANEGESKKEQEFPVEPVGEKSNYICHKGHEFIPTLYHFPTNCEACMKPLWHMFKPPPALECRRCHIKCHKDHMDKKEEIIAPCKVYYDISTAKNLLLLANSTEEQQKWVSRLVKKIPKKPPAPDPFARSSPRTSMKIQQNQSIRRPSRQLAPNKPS
LIMK1, sequence (P53667 whole entry): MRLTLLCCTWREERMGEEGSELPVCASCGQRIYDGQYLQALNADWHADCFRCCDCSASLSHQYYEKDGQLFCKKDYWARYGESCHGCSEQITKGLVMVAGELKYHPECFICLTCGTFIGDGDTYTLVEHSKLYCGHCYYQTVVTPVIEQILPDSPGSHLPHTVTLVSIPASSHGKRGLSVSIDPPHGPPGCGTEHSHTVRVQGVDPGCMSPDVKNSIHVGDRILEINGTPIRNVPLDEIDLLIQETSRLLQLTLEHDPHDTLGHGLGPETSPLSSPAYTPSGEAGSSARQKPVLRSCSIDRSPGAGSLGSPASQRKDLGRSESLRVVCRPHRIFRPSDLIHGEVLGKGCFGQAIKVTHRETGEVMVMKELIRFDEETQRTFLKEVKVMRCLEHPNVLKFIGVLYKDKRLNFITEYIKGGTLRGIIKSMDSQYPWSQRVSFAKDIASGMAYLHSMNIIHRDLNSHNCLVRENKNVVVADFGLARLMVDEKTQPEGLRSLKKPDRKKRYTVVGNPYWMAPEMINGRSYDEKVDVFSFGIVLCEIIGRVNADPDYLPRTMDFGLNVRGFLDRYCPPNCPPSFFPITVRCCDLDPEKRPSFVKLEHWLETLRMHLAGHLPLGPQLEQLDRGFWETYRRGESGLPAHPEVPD
ROCK1, sequence (Q13464 whole entry): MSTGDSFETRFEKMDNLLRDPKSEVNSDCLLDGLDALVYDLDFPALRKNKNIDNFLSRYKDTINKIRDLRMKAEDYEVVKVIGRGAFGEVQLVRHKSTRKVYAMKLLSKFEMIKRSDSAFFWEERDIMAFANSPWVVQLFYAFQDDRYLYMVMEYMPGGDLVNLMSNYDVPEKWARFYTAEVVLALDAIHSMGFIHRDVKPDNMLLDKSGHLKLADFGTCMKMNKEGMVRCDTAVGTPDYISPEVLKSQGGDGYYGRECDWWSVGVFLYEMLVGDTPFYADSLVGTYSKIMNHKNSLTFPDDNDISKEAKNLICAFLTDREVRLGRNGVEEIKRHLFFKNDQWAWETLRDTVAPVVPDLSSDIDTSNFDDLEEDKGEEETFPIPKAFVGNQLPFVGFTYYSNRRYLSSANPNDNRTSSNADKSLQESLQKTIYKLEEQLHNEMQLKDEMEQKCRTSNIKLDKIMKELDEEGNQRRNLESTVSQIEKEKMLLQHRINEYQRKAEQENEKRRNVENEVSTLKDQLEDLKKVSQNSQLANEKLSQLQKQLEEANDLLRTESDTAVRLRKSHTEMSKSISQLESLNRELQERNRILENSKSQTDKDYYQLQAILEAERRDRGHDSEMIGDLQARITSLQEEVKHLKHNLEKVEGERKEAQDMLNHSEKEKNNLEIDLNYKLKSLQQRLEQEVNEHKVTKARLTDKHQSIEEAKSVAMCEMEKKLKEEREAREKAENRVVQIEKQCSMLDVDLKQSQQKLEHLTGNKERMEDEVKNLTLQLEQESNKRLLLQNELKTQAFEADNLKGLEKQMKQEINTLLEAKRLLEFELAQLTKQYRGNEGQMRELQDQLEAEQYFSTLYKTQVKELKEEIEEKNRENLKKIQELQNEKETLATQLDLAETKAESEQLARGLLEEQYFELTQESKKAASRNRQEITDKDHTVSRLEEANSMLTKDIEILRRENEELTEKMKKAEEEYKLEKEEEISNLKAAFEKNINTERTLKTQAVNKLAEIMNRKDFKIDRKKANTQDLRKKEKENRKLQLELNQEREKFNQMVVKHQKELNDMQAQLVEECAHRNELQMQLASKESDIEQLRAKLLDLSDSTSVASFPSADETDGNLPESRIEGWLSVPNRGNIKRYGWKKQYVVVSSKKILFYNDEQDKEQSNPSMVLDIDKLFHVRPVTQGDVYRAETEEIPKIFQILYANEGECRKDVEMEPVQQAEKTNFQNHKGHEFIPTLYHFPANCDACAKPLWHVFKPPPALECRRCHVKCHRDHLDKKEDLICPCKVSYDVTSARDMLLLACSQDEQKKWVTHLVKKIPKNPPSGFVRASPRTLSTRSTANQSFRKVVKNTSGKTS
LIMK2, sequence (P53671 whole entry): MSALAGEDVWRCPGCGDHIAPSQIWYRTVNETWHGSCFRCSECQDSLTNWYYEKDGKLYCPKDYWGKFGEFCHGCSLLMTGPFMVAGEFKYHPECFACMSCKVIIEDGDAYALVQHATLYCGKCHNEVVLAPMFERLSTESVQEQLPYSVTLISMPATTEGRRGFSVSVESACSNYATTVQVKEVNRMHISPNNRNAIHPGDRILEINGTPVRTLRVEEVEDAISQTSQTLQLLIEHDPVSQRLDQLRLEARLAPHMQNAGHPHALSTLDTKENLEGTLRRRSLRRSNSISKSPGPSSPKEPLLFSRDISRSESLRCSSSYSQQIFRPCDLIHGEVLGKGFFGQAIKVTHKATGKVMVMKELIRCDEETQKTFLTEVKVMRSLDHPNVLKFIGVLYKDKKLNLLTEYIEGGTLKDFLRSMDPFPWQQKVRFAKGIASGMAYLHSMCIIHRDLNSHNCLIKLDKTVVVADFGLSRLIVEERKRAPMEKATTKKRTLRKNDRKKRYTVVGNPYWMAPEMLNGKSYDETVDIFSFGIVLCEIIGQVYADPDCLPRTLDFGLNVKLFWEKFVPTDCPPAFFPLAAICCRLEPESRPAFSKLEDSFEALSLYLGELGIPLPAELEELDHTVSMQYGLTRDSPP

The term Ki denotes a measure of affinity in units of concentration, obtained from inhibition or displacement. A word on the inhibition: it is the change of the read-out against control, counted positive when it falls. For the compound `O=C(Nc1ccccc1)N1CC=C(c2ncnc3[nH]c4c(c23)CCC4)CC1` [Compound 119, N-Phenyl-4-(5,6,7,8-tetrahydrocyclopenta[4,5]pyrrolo[2,3-d]pyrimidin-4-yl)-3,6-dihydropyridine-1(2H)-carboxamide], the Ki is 7.98 nM in assay [1] (Lanthascreen Eu binding assay) and 30.4 nM in assay [2] (Lanthascreen Eu binding assay). Also, the inhibition at 1 µM was 0% in assay [3] (setting [6]) and 11% in assay [4] (setting [7]). For the same compound, the inhibition at 25 µM in assay [5] (setting [8]) came to 64.1%.

Consider `O=C(Nc1cccc(C(F)(F)F)c1)N1CC=C(c2ncnc3[nH]c4c(c23)CCC4)CC1` [Compound 128, 4-(7,9,11-Triazatricyclo[6.4.0.02,6]dodeca-1(8),2(6),9,11-tetraen-12-yl)-N[3(trifluoromethyl)phenyl]-3,6-dihydropyridine-1(2H)-carboxamide], for which the values for the Ki in assay [1] (Lanthascreen Eu binding assay) and in assay [2] (Lanthascreen Eu binding assay) were 27.1 nM and 68.3 nM, respectively. Further, in assay [4] (1 uM), the “% inhibition (ROCK2) 1 uM” value is given as −14%. Besides, the “% inhibition Cofilin phosphorylation HeLa cells treated 2 h with 25 uM of inhibitor” value in assay [5] (HeLa cells, 2 h, 25 uM) was found to be 83.9%. Further, in assay [5] (Table 2, normalized to the control condition DMSO), the “% inhibition of cofilin phosphorylation in HeLa cells (treatment 2 h, at 25 μM)” value is on record as 83.9%.

`COc1cccc(Oc2cccc(NC(=O)N3CC=C(c4ncnc5[nH]cc(C6CC6)c45)CC3)c2)c1` [Compound 82, 4-(5-Cyclopropyl-7H-pyrrolo[2,3-d]pyrimidin-4-yl)-N-[3-(3-methoxyphenoxy)phenyl]-3,6-dihydropyridine-1(2H)-carboxamide]: the Ki in assay [1] (Lanthascreen Eu binding assay) was 47.4 nM; in assay [2] (Lanthascreen Eu binding assay), 20.3 nM. In addition, the figures for the inhibition at 1 µM in assay [3] (setting [9]) and in assay [4] (setting [10]) were 16% and 11%, respectively. Besides, the inhibition at 25 µM in assay [5] (setting [11]) and in assay [5] (setting [8]) was 82.7% in each case.

As to `O=C(Nc1cccc(-n2cccc2)c1)N1CC=C(c2ncnc3[nH]cc(C4CC4)c23)CC1` [Compound 81, 4-(5-Cyclopropyl-7H-pyrrolo[2,3-d]pyrimidin-4-yl)-N-(3-pyrrol-1-ylphenyl)-3,6-dihydropyridine-1(2H)-carboxamide], the inhibition at 1 µM in assay [3] (setting [9]) came out at 36%; in assay [4] (setting [10]) it was 35%. For the same compound, the inhibition at 25 µM in assay [5] (setting [12]) and in assay [5] (setting [13]) was 90% in each case.

With `O=C(Nc1cccc(Cl)c1)N1CC=C(c2ncnc3[nH]c4c(c23)CCC4)CC1` [Compound 111, N-(3-Chlorophenyl)-4-(5,6,7,8-tetrahydrocyclopenta[4,5]pyrrolo[2,3-d]pyrimidin-4-yl)-3,6-dihydropyridine-1(2H)-carboxamide], the Ki in assay [1] (Lanthascreen Eu binding assay) was determined as 5.78 nM; in assay [2] (Lanthascreen Eu binding assay), 25.5 nM. Besides, the inhibition at 1 µM in assay [3] (setting [6]) was 10%; in assay [4] (setting [7]), 14%. Moreover, the inhibition at 25 µM in assay [5] (setting [11]) and in assay [5] (setting [8]) was 82.3% throughout.

In the case of `O=C(Nc1cccc(F)c1)N1CC=C(c2ncnc3[nH]c4c(c23)CCCCC4)CC1` [Compound 116, N-(3-Fluorophenyl)-4-(5,6,7,8,9,10-hexahydrocyclohepta[4,5]pyrrolo[2,3-d]pyrimidin-4-yl)-3,6-dihydropyridine-1(2H)-carboxamide], the results for the Ki in assay [1] (Lanthascreen Eu binding assay) and in assay [2] (Lanthascreen Eu binding assay) were 16.5 nM and 64 nM, respectively. Besides, the values for the inhibition at 1 µM in assay [3] (setting [9]) and in assay [4] (setting [10]) were -8% and -7%, respectively. Further, the inhibition at 25 µM in assay [5] (setting [11]) and in assay [5] (setting [8]) was 73.1% each time.

As to `N#Cc1cccc(NC(=O)N2CC=C(c3ncnc4[nH]c5c(c34)CCC5)CC2)c1` [Compound 127, N-(3-Cyanophenyl)-4-(7,9,11-triazatricyclo[6.4.0.02,6]dodeca-1(8),2(6),9,11-tetraen-12-yl)-3,6-dihydropyridine-1(2H)-carboxamide], the Ki is 8.19 nM in assay [1] (Lanthascreen Eu binding assay) and 39.3 nM in assay [2] (Lanthascreen Eu binding assay). The inhibition at 1 µM was 3% in assay [3] (setting [9]) and 20% in assay [4] (setting [10]). Moreover, the inhibition at 25 µM in assay [5] (setting [8]) is 68.5%.

On to `Cc1c[nH]c2ncnc(C3=CCN(C(=O)Nc4ccc5ccccc5c4)CC3)c12` [Compound 13, 4-(5-Methyl-7H-pyrrolo[2,3-d]pyrimidin-4-yl)-N-(naphthalen-2-yl)-3,6-dihydropyridine-1(2H)-carboxamide], for which the inhibition at 1 µM came out at 73% in assay [3] (setting [9]) and 56% in assay [4] (setting [10]). In addition, the inhibition at 25 µM in assay [5] (setting [12]) and in assay [5] (setting [13]) was 84.2% throughout.

Take `Cc1c[nH]c2ncnc(C3=CC(C)N(C(=O)Nc4cccc(Br)c4)CC3)c12` (stereo not drawn) [Compound 49a-49b, N-(3-bromophenyl)-6-methyl-4-(5-methyl-7H-pyrrolo[2,3-d]pyrimidin-4-yl)-3,6-dihydropyridine-1(2H)-carboxamide (49a) and N-(3-bromophenyl)-2-methyl-4-(5-methyl-7H-pyrrolo[2,3-d]pyrimidin-4-yl)-3,6-dihydropyridine-1(2H)-carboxamide (49b)]: the “% inhibition (ROCK1) 1 uM” value in assay [3] is 96%. Also, the “% inhibition (ROCK2) 1 uM” value in assay [4] is 98%. Also, in assay [5], the “% inhibition Cofilin phosphorylation HeLa cells treated 2 h with 25 uM of inhibitor” value stood at 88.1% and the “% inhibition of cofilin phosphorylation in HeLa cells (treatment 2 h, at 25 μM)” value came to 88.1%.

Take `Cc1c[nH]c2ncnc(C3=CCN(C(=O)Nc4cccc(-n5cncn5)c4)CC3)c12` [Compound 26, N-(3-(1H-1,2,4-Triazol-1-yl)phenyl)-4-(5-methyl-7H-pyrrolo[2,3-d]pyrimidin-4-yl)-3,6-dihydropyridine-1(2H)-carboxamide]: the figures for the Ki in assay [1] (Lanthascreen Eu binding assay) and in assay [2] (Lanthascreen Eu binding assay) were 278 nM and 90.7 nM, respectively. In addition, the inhibition at 1 µM amounted to 85% in assay [3] (setting [9]) and 64% in assay [4] (setting [10]).

Take `Cc1c[nH]c2ncnc(C3=CCN(C(=O)N[C@@H]4CCCc5ccccc54)CC3)c12` [Compound 35-R, 4-(5-methyl-7H-pyrrolo[2,3-d]pyrimidin-4-yl)-N-tetralin-1-yl-3,6-dihydro-2H-pyridine-1-carboxamide]: the figures for the Ki in assay [1] and in assay [2] were 851 nM and 2540 nM, respectively. Also, the values for the inhibition at 1 µM in assay [3] (setting [6]) and in assay [4] (setting [7]) were 24% and 12%, respectively.

Regarding `O=C(Nc1cccc(Oc2ccccc2)c1)N1CC=C(c2ncnc3[nH]c4c(c23)CCCC4)CC1` [Compound 126, N-(3-Phenoxyphenyl)-4-(6,7,8,9-tetrahydro-5H-pyrimido[4,5-b]indol-4-yl)-3,6-dihydropyridine-1(2H)-carboxamide], the Ki in assay [1] (Lanthascreen Eu binding assay) was determined as 30.2 nM; in assay [2] (Lanthascreen Eu binding assay) it was 20.5 nM. Also, the inhibition at 1 µM in assay [3] (setting [9]) is 7%; in assay [4] (setting [10]) it was -5%.

`O=C(Nc1ccccc1)N1CC=C(c2ncnc3[nH]c4c(c23)CCCC4)CC1` [Compound 120, N-Phenyl-4-(6,7,8,9-tetrahydro-5H-pyrimido[4,5-b]indol-4-yl)-3,6-dihydropyridine-1(2H)-carboxamide]: the Ki in assay [1] (Lanthascreen Eu binding assay) was 14.9 nM; in assay [2] (Lanthascreen Eu binding assay), 29.6 nM. In addition, the inhibition at 1 µM in assay [3] (setting [6]) is 0%; in assay [4] (setting [7]), -9%.

For the compound `Cc1c[nH]c2ncnc(C3=CCN(C(=O)Nc4cccc(Oc5ccc(F)cc5)c4)CC3)c12` [Compound 202, N-(3-(4-fluorophenoxy)phenyl)-4-(5-methyl-7H-pyrrolo[2,3-d]pyrimidin-4-yl)-3,6-dihydropyridine-1(2H)-carboxamide], the Ki in assay [1] (Lanthascreen Eu binding assay) is 70.4 nM; in assay [2] (Lanthascreen Eu binding assay) it was 68.7 nM. Also, the figures for the inhibition at 1 µM in assay [3] (setting [9]) and in assay [4] (setting [10]) were 26% and 15%, respectively.

Take `CC(=O)NCCCOc1cccc(-c2cccc(NC(=O)N3CC=C(c4ncnc5[nH]cc(C)c45)CC3)c2)c1` [Compound 40, N-(3′-(3-Acetamidopropoxy)-[1,1′-biphenyl]-3-yl)-4-(5-methyl-7H-pyrrolo[2,3-d]pyrimidin-4-yl)-5,6-dihydropyridine-1(2H)-carboxamide]: the Ki stood at 10.6 nM in assay [1] (Lanthascreen Eu binding assay) and 13.4 nM in assay [2] (Lanthascreen Eu binding assay). Besides, the inhibition at 1 µM in assay [3] (setting [9]) was 33%; in assay [4] (setting [10]), 22%.

As to `CN1CCc2[nH]c3ncnc(C4=CCN(C(=O)Nc5cccc(F)c5)CC4)c3c2C1` [Compound 160, N-(3-Fluorophenyl)-4-(6-methyl-6,7,8,9-tetrahydro-5H-pyrido[3′,4′:4,5]pyrrolo[2,3-d]pyrimidin-4-yl)-3,6-dihydropyridine-1(2H)-carboxamide], the Ki was 1170 nM in assay [1] (Lanthascreen Eu binding assay) and 2440 nM in assay [2] (Lanthascreen Eu binding assay). Further, the inhibition at 1 µM in assay [3] (setting [9]) is 1%; in assay [4] (setting [10]) it was -9%.

As to `Cc1c[nH]c2ncnc(C3=CCN(C(=O)Nc4ccc(Oc5ccccc5)cc4)CC3)c12` [Compound 16, 4-(5-Methyl-7H-pyrrolo[2,3-d]pyrimidin-4-yl)-N-(4-phenoxy-phenyl)-3,6-dihydropyridine-1(2H)-carboxamide], the Ki in assay [1] (Lanthascreen Eu binding assay) is 80.1 nM; in assay [2] (Lanthascreen Eu binding assay), 341 nM. Moreover, the “% inhibition (ROCK1) 1 uM” value in assay [3] (1 uM) is listed as 15%. Also, the “% inhibition (ROCK2) 1 uM” value in assay [4] (1 uM) is recorded as 14%.

Turning to `Cc1c[nH]c2ncnc(C3=CCN(C(=O)Nc4cccc(Oc5ccc(Br)cc5Cl)c4)CC3)c12` [Compound 206, N-(3-(4-bromo-2-chlorophenoxy)phenyl)-4-(5-methyl-7H-pyrrolo[2,3-d]pyrimidin-4-yl)-3,6-dihydropyridine-1(2H)-carboxamide], the Ki in assay [1] (Lanthascreen Eu binding assay) was determined as 418 nM; in assay [2] (Lanthascreen Eu binding assay), 676 nM. Besides, the inhibition at 1 µM turned out to be 13% in assay [3] (setting [9]) and 3% in assay [4] (setting [10]).
